Test results published in patent EP1071665B1, “SUBSTITUTED INDOLINONES HAVING AN INHIBITING EFFECT ON KINASES AND CYCLINE/CDK COMPLEXES” (Boehringer Ingelheim Pharma GmbH & Co.KG, priority 1998, dated 1999).

Tested on: Leiomyosarcoma Tumorzell-Linie SK-UT-1B
Test: Test 2: inhibition of proliferation of cultured human tumour cells (14C-thymidine incorporation)
Assay type: cell-based
Conditions: Skut1B, SK-UT-1B cells, 48 h incubation with compound, then a further 24 h with 14C-thymidine, measured in duplicate, read-out: Hemmung der SKUT-1B-Proliferation IC50
Excerpt: Inhibierung der Profileration von kultivierten humanen Tumorzellen
Zellen der Leiomyosarcoma Tumorzell-Linie SK-UT-1B (erhalten von der American Type Culture Collection (ATCC)) wurden in Minimum Essential Medium mit nicht essentiellen Aminosäuren (Gibco), ergänzt mit Natrium-Pyruvat (1 mMol), Glutamin (2 mMol) und 10% fötalem Rinderserum (Gibco) kultiviert und in der log-Wachstumsphase geerntet. Anschließend wurden die SK-UT-1B-Zellen in Cytostar® multi-well Platten (Amersham) mit einer Dichte von 4000 cells per well eingebracht und über Nacht in einem Inkubator inkubiert. Verschiedene Konzentrationen der Verbindungen (gelöst in DMSO; Endkonzentration: <1%) wurden zu den Zellen zugegeben. Nach 48 Stunden Inkubation wurde ^14C-Thymidin (Amersham) zu jedem well zugesetzt, und es wurde weitere 24 Stunden inkubiert. Die Menge an ^14C-Thymidin, die in Gegenwart des Inhibitors in die Tumorzellen eingebaut wurde und die die Zahl der Zellen in der S-Phase repräsentiert, wurde in einem Wallace 1450 Microbeta Flüssig Scintillations Zähler gemessen. IC50-Werte für die Inhibierung der Proliferation (= Inhibierung von eingebautem ^14C-Thymidin) wurden - unter Korrektur für die Hintergrundstrahlung - berechnet. Alle Messungen wurden zweifach ausgeführt.

Row | SMILES | IC50 [nM]
1 | CN(C)Cc1ccc(N/C(=C2\C(=O)Nc3ccc(C(N)=O)cc32)c2ccccc2)cc1 [Beispiel 4(62), 3-Z-[1-(4-Dimethylaminomethyl-phenylamino)-1-phenyl-methylen]-5-amido-2-indolinon] | 50
2 | CCN(CC)CCCOc1ccc(N/C(=C2\C(=O)Nc3ccc(C(N)=O)cc32)c2ccccc2)cc1 [4(129), 3-Z-[1-(4-(3-Diethylamino-propoxy)-phenylamino)-1-phenylmethylen] -5-amido-2-indolinon-trifluoracetat] | 40
3 | NC(=O)c1ccc2c(c1)/C(=C(/Nc1ccc(CN3CCCCCC3)cc1)c1ccccc1)C(=O)N2 [Beispiel 4(54), 3-Z-[1-(4-Hexamethyleniminomethyl-phenylamino)-1-phenylmethylen]-5-amido-2-indolinon-trifluoracetat] | 30
4 | CCCCNCc1ccc(N/C(=C2\C(=O)Nc3ccc(C(N)=O)cc32)c2ccccc2)cc1 [4(120), 3-2-[1-(4-(N-Butyl-aminomethyl)-phenylamino)-1-phenylmethylen]-5-amido-2-indolinon-trifluoracetat] | 40
5 | NC(=O)c1ccc2c(c1)/C(=C(/Nc1ccc(Br)cc1)c1ccccc1)C(=O)N2 [Beispiel 4(14), 3-Z-[1-(4-Brom-phenylamino)-1-phenyl-methylen]-5-amido-2-indolinon] | 180
6 | NC(=O)c1ccc2c(c1)/C(=C(/Nc1ccccc1)c1ccccc1)C(=O)N2 [Beispiel 4(2), 3-Z-(1-Phenylamino-1-phenyl-methylen)-5-amido-2-indolinon] | 170
7 | NC(=O)c1ccc2c(c1)/C(=C(/Nc1ccc(CNCc3ccccc3)cc1)c1ccccc1)C(=O)N2 [4(122), 3-Z-[1-(4-(N-(Phenyl-methyl)-aminomethyl)-phenylamino)-1-phenyl-methylen]-5-amido-2-indolinon-trifluoracetat] | 40
8 | CN(Cc1ccccc1)Cc1ccc(N/C(=C2\C(=O)Nc3ccc(C(N)=O)cc32)c2ccccc2)cc1 [Beispiel 4(94), 3-Z-[1-(4-(N-Methyl-N-benzyl-amino-methyl)-phenylamino)-1-phenyl-methylen]-5-amido-2-indolinon-trifluoracetat] | 30
9 | NC(=O)c1ccc2c(c1)/C(=C(/Nc1ccc(CN3CCCCC3)cc1)c1ccccc1)C(=O)N2 [Beispiel 4(53), 3-Z-[1-(4-Piperidinomethyl-phenylamino)-1-phenyl-methylen] -5-amido-2-indolinon-trifluoracetat] | 10
10 | NC(=O)c1ccc2c(c1)/C(=C(/Nc1ccc(CN3CCC(Cc4ccccc4)CC3)cc1)c1ccccc1)C(=O)N2 [Beispiel 4(60), 3-Z-[1-(4-(4-Benzyl-piperidinomethyl)-phenylamino)-1-phenyl-methylen]-5-amido-2-indolinon] | 30
